Consider twelve compounds from US20160108098A1, “THERAPEUTIC PEPTIDES” (GLAXOSMITHKLINE INTELLECTUAL PROPERTY DEVELOPMENT LIMITED, priority 2013, published 2016).

Where no end group is shown, it is not given here.

Experiment [1] addresses T1, human Neuropeptide Y receptor type 2 (Homo sapiens, UniProt P49146).
T1 construct: expressed in transfected cells; host or cells: melanophores; own knowledge: in the cited Jayawickreme protocol these are Xenopus laevis melanophores transfected with the receptor
T1 sequence (P49146 1-381): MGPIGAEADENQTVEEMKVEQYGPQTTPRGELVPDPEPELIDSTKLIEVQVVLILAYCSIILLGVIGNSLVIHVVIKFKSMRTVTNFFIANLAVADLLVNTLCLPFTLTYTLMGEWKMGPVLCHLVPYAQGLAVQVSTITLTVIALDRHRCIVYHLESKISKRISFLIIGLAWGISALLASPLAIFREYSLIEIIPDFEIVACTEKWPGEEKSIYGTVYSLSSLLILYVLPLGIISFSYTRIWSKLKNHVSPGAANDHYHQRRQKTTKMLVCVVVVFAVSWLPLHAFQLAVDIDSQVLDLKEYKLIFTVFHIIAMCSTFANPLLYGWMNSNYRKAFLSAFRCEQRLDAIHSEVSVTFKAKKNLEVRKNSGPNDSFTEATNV
Nature of the experiment: melanophore assay, potency at the human Neuropeptide Y receptor type 2. Conditions: read-out: hNPY Y2 pEC50 (converted). Type of experiment: cell-based.

The nature of experiment [2]: cumulative food intake, lean mice (Model A), BioDaQ system. Type of experiment: in vivo. Conditions: lean C57BL/6 mice, 1 mg/kg subcutaneously, cumulative food intake after 6 h, relative to vehicle controls. As to the method: Cumulative food intake after 6 h was determined for the PYY analogs in either lean (Model A) or diet-induced obese (DIO) (Model B) C57BL/6 mice in a BioDaQ system for continuous monitoring of food intake (Research Diets Inc., New Brunswick, N.J.). […] Mice were placed singly into the BioDaQ cages and acclimatized for a minimum of 6 days and were allowed ad libitum access to food and water. Approximately 1 hour prior to lights-out, animals were dosed subcutaneously with either vehicle (20 mM Acetate buffer, pH 4.9 or 20% DMSO in water) or analogs dissolved in vehicle (1 mg/kg) (8 animals per group). Once all animals have been dosed, feeder gates were opened providing ad-libitum access to food. Continuous food intake was monitored and collected for 15 hours. […] P-values<0.05 were considered to indicate a significant difference between treatment groups.

Regarding `CC(C)C[C@H](NC(=O)[C@H](CO)NC(=O)[C@H](C)NC(=O)[C@H](Cc1ccc(O)cc1)NC(=O)[C@H](Cc1ccc(O)cc1)NC(=O)[C@H](CCCNC(=N)N)NC(=O)[C@H](CC(N)=O)NC(=O)[C@H](CC(C)C)NC(=O)[C@H](CCC(=O)O)NC(=O)[C@H](CCC(=O)O)NC(=O)[C@@H]1CCCN1C(=O)[C@H](CO)NC(=O)[C@H](C)NC(=O)[C@H](CC(=O)O)NC(=O)[C@H](CCCCN)NC(=O)CNC(=O)[C@@H]1CCCN1C(=O)[C@H](C)NC(=O)[C@H](CCC(=O)O)NC(=O)[C@@H]1CCCN1C(=O)[C@H](CCCCN)NC(=O)[C@@H]1CCCN1)C(=O)N[C@@H](CCCNC(=N)N)C(=O)N[C@@H](CCCCN)C(=O)N[C@@H](Cc1ccc(O)cc1)C(=O)N[C@@H](CC(C)C)C(=O)N[C@@H](CC(N)=O)C(=O)N[C@@H](Cc1c[nH]c2ccccc12)C(=O)N[C@@H](CC(C)C)C(=O)N[C@H](C(=O)N[C@@H](CCCNC(=N)N)C(=O)N[C@@H](CCC(N)=O)C(=O)N[C@@H](CCCNC(=N)N)C(=O)N[C@@H](Cc1ccc(O)cc1)C(N)=O)[C@@H](C)O` [Example 2], the EC50 in experiment [1] is 0.158 nM. For the same compound, the “% change in food intake vs vehicle, model A” value (“% change in food intake” below) in experiment [2] is given as −50%.
With `CC(C)C[C@H](NC(=O)[C@H](CC(=O)O)NC(=O)[C@H](C)NC(=O)[C@H](Cc1ccc(O)cc1)NC(=O)[C@H](Cc1ccc(O)cc1)NC(=O)[C@H](CCCNC(=N)N)NC(=O)[C@H](CC(N)=O)NC(=O)[C@H](Cc1c[nH]c2ccccc12)NC(=O)[C@H](CCC(=O)O)NC(=O)[C@H](CCC(=O)O)NC(=O)[C@@H]1CCCN1C(=O)[C@H](CO)NC(=O)[C@H](C)NC(=O)[C@H](CC(=O)O)NC(=O)[C@H](CCCCN)NC(=O)CNC(=O)[C@@H]1CCCN1C(=O)[C@H](C)NC(=O)[C@H](CCC(=O)O)NC(=O)[C@@H]1CCCN1C(=O)[C@H](CCCCN)NC(=O)[C@@H]1CCCN1)C(=O)N[C@@H](CCCNC(=N)N)C(=O)N[C@@H](CCCCN)C(=O)N[C@@H](Cc1ccc(O)cc1)C(=O)N[C@@H](CC(C)C)C(=O)N[C@@H](CC(N)=O)C(=O)N[C@@H](Cc1c[nH]c2ccccc12)C(=O)N[C@@H](CC(C)C)C(=O)N[C@H](C(=O)N[C@@H](CCCNC(=N)N)C(=O)N[C@@H](CCC(N)=O)C(=O)N[C@@H](CCCNC(=N)N)C(=O)N[C@@H](Cc1ccc(O)cc1)C(N)=O)[C@@H](C)O` [Example 4], in experiment [2], the “% change in food intake” value is reported as −83%.
Take `CC(C)C[C@H](NC(=O)[C@H](CO)NC(=O)[C@H](C)NC(=O)[C@H](Cc1ccc(O)cc1)NC(=O)[C@H](Cc1ccc(O)cc1)NC(=O)[C@H](CCCNC(=N)N)NC(=O)[C@H](CC(N)=O)NC(=O)[C@H](Cc1c[nH]c2ccccc12)NC(=O)[C@H](CCC(=O)O)NC(=O)[C@H](CCC(=O)O)NC(=O)[C@@H]1CCCN1C(=O)[C@H](CO)NC(=O)[C@H](C)NC(=O)[C@H](CC(=O)O)NC(=O)[C@H](CCCCN)NC(=O)CNC(=O)[C@@H]1CCCN1C(=O)[C@H](C)NC(=O)[C@H](CCC(=O)O)NC(=O)[C@@H]1CCCN1C(=O)[C@H](CCCCN)NC(=O)[C@@H]1CCCN1)C(=O)N[C@@H](CCCNC(=N)N)C(=O)N[C@@H](CCCCN)C(=O)N[C@@H](Cc1ccc(O)cc1)C(=O)N[C@@H](CC(C)C)C(=O)N[C@@H](CC(N)=O)C(=O)N[C@@H](Cc1c[nH]c2ccccc12)C(=O)N[C@@H](CC(C)C)C(=O)N[C@H](C(=O)N[C@@H](CCCNC(=N)N)C(=O)N[C@@H](CCC(N)=O)C(=O)N[C@@H](CCCNC(=N)N)C(=O)N[C@@H](Cc1ccc(O)cc1)C(N)=O)[C@@H](C)O` [Example 6]: the EC50 in experiment [1] is 0.0794 nM. Further, the “% change in food intake” value in experiment [2] is on record as −88%.
The corresponding values for `CC(C)C[C@H](NC(=O)[C@H](CC(=O)O)NC(=O)[C@H](C)NC(=O)[C@H](Cc1ccc(O)cc1)NC(=O)[C@H](Cc1ccc(O)cc1)NC(=O)[C@H](CCCNC(=N)N)NC(=O)[C@H](CC(N)=O)NC(=O)[C@H](Cc1c[nH]c2ccccc12)NC(=O)[C@H](CCC(=O)O)NC(=O)[C@H](CCC(=O)O)NC(=O)[C@@H]1CCCN1C(=O)[C@H](CO)NC(=O)[C@H](C)NC(=O)[C@H](CC(=O)O)NC(=O)[C@H](CCCCN)NC(=O)CNC(=O)[C@@H]1CCCN1C(=O)[C@H](C)NC(=O)[C@H](CCC(=O)O)NC(=O)[C@@H]1CCCN1C(=O)[C@H](CCCCN)NC(=O)[C@@H]1CCCN1)C(=O)N[C@@H](CCCNC(=N)N)C(=O)N[C@@H](CCCCN)C(=O)N[C@@H](Cc1ccc(O)cc1)C(=O)N[C@@H](CC(C)C)C(=O)N[C@@H](CC(N)=O)C(=O)N[C@@H](Cc1c[nH]c2ccccc12)C(=O)N[C@H](C(=O)N[C@H](C(=O)N[C@@H](CCCNC(=N)N)C(=O)N[C@@H](CCC(N)=O)C(=O)N[C@@H](CCCNC(=N)N)C(=O)N[C@@H](Cc1ccc(O)cc1)C(N)=O)[C@@H](C)O)C(C)C` [Example 8] are 0.02 nM and −74%.
In the same order, the values of `CC(C)C[C@H](NC(=O)[C@H](CO)NC(=O)[C@H](C)NC(=O)[C@H](Cc1ccc(O)cc1)NC(=O)[C@H](Cc1ccc(O)cc1)NC(=O)[C@H](CCCNC(=N)N)NC(=O)[C@H](CC(N)=O)NC(=O)[C@H](Cc1c[nH]c2ccccc12)NC(=O)[C@H](CCC(=O)O)NC(=O)[C@H](CCC(=O)O)NC(=O)[C@@H]1CCCN1C(=O)[C@H](CO)NC(=O)[C@H](C)NC(=O)[C@H](CC(=O)O)NC(=O)[C@H](CCCCN)NC(=O)CNC(=O)[C@@H]1CCCN1C(=O)[C@H](C)NC(=O)[C@H](CCC(=O)O)NC(=O)[C@@H]1CCCN1C(=O)[C@H](CCCCN)NC(=O)[C@@H]1CCCN1)C(=O)N[C@@H](CCCNC(=N)N)C(=O)N[C@@H](CCCCN)C(=O)N[C@@H](Cc1ccc(O)cc1)C(=O)N[C@@H](CC(C)C)C(=O)N[C@@H](CC(N)=O)C(=O)N[C@@H](Cc1c[nH]c2ccccc12)C(=O)N[C@H](C(=O)N[C@H](C(=O)N[C@@H](CCCNC(=N)N)C(=O)N[C@@H](CCC(N)=O)C(=O)N[C@@H](CCCNC(=N)N)C(=O)N[C@@H](Cc1ccc(O)cc1)C(N)=O)[C@@H](C)O)C(C)C` [Example 10] are 0.0398 nM and −88%.
The corresponding values for `CC(C)C[C@H](NC(=O)[C@H](CO)NC(=O)[C@H](C)NC(=O)[C@H](Cc1ccc(O)cc1)NC(=O)[C@H](Cc1ccc(O)cc1)NC(=O)[C@H](CCCNC(=N)N)NC(=O)[C@H](CC(N)=O)NC(=O)[C@H](CC(C)C)NC(=O)[C@H](CCC(=O)O)NC(=O)[C@H](CCC(=O)O)NC(=O)[C@@H]1CCCN1C(=O)[C@H](CO)NC(=O)[C@H](C)NC(=O)[C@H](CC(=O)O)NC(=O)[C@H](CCCCN)NC(=O)CNC(=O)[C@@H]1CCCN1C(=O)[C@H](C)NC(=O)[C@H](CCC(=O)O)NC(=O)[C@@H]1CCCN1C(=O)[C@H](CCCCN)NC(=O)[C@@H]1CCCN1)C(=O)N[C@@H](CCCNC(=N)N)C(=O)N[C@@H](CCCCN)C(=O)N[C@@H](Cc1ccc(O)cc1)C(=O)N[C@@H](CC(C)C)C(=O)N[C@@H](CC(N)=O)C(=O)N[C@@H](Cc1c[nH]c2ccccc12)C(=O)N[C@H](C(=O)N[C@H](C(=O)N[C@@H](CCCNC(=N)N)C(=O)N[C@@H](CCC(N)=O)C(=O)N[C@@H](CCCNC(=N)N)C(=O)N[C@@H](Cc1ccc(O)cc1)C(N)=O)[C@@H](C)O)C(C)C` [Example 31] are 0.158 nM and −59%.
Regarding `CC[C@H](C)[C@H](N)C(=O)N[C@@H](CCCCN)C(=O)N1CCC[C@H]1C(=O)N1CCC[C@H]1C(=O)N[C@@H](Cc1ccc(O)cc1)C(=O)N1CCC[C@H]1C(=O)NCC(=O)N[C@@H](CS)C(=O)N[C@@H](CC(=O)O)C(=O)N[C@@H](C)C(=O)N[C@@H](CO)C(=O)N1CCC[C@H]1C(=O)N[C@@H](CCC(=O)O)C(=O)N[C@@H](CCC(=O)O)C(=O)N[C@@H](CCC(N)=O)C(=O)N[C@@H](CC(N)=O)C(=O)N[C@@H](CCCCN)C(=O)N[C@@H](Cc1ccc(O)cc1)C(=O)N[C@@H](Cc1ccc(O)cc1)C(=O)N[C@@H](C)C(=O)N[C@@H](CO)C(=O)N[C@@H](CC(C)C)C(=O)N[C@@H](CCCNC(=N)N)C(=O)N[C@@H](C)C(=O)N[C@@H](Cc1ccc(O)cc1)C(=O)N[C@@H](Cc1c[nH]c2ccccc12)C(=O)N[C@@H](CC(N)=O)C(=O)N[C@@H](CC(C)C)C(=O)N[C@H](C(=O)N[C@H](C(=O)N[C@@H](CCCNC(=N)N)C(=O)N[C@@H](CCC(N)=O)C(=O)N[C@@H](CCCNC(=N)N)C(=O)N[C@@H](Cc1ccc(O)cc1)C(N)=O)[C@@H](C)O)C(C)C` [Peptide 8], the EC50 in experiment [1] is 0.501 nM. For the same compound, the “% change in food intake” value in experiment [2] is -19%.
The corresponding values for “H-IKPEAPLSKQLEEEAVRYYASLRHYLNLVTRQRY-NH2 [Peptide 2]” are 2.51 nM and -12%.
In the same order, the values of “H-PKPEAPGCDASPEEWNRYYASLRKYLNWVTRQNY-NH2 [Peptide 1]” are 12.6 nM and 5%.
The corresponding values for “H-PKPEAPGEDASPKEWNRYYASLRKYLNWVTRQRY-NH2 [Peptide 3]” are 0.631 nM and -30%.
With “H-PQPESPEGNASPEDWACYHAAVRHYVNLITRQRY-NH2 [Peptide 18]”, the “% change in food intake” value in experiment [2] is -17%.
Still for that read-out and setting: the value for “PEPEHPGCDASPEDQNKYHASLRKYLNWVTRQRY-NH2 [Peptide 10]” was -21%.
